Patent publication US20230066065A1, “USE OF LOW DOSES OF HYDROXYCHLOROQUINE FOR THE TREATMENT OF LIPIN-1 DEFICIENCY” (Institut National de la Santé et de la Recherche Médicale …, priority 2020, published 2023)
Values joined by “and” are separate entries in the source; they are usually repeats but may differ in a detail not shown here. Identical values can stand only once. “Also recorded” adds a separate entry of the source.

Assays:
[1] = tested on: patients with Lipin-1 deficiency; assay: Off open-label use phases 1 and 2 study: number of rhabdomyolysis (RM) episodes under HCQ; type: in vivo, human
Procedure: Ten patients with Lipin-1 deficiency were progressively enrolled in an off open-label use phases 1 and 2 study to assess safety, clinical, and biological effects of Hydroxychloroquine Sulfate (HCQ). The diagnosis of Lipin-1 disease was confirmed in all patients (Table 1). LPIN1 genotyping was performed by PCR analysis of DNA isolated from blood as previously described^2. The patients presented severe episodes of acute RM (1 to 6) defined as creatine kinase (CK) levels >6 000 U/L (normal<160 U/L), associated with mild viral illness, fasting, or prolonged exercise. Chronic symptoms such as muscle pain, fatigability, exercise intolerance, or more rarely cardiac feature were associated in 6 patients.
The patients were treated with oral HCQ at an initial posology of 6.5 mg/Kg/day in one intake, not exceeding 400 mg/day, with different treatment duration depending on the patient (Table 2). Tablets (200 mg) were proposed to patients over 6 years old, and soluble form to patients under 6 years old.
Efficacy and safety of HCQ in patients were assessed by clinical and biological evaluation determined at baseline before HCQ treatment and at regular intervals after initiation of HCQ treatment (every 3 to 6 months).
The clinical parameters encompassed the RM episode number and several standardized tools based on age at study start: auto evaluations assessing the muscle pain and the quality of life, 6-Minute Walk Test, 3-Minute Step Test, heart ultrasounds, and exercise tolerance test in the subgroup of subjects>6 years old^11.
The patients were treated with oral HCQ at a initial posology of 6.5 mg/Kg/day in one intake, not exceeding 400 mg/day, with different treatment duration depending on the patient (Table 2). The data were collected at the Necker Hospital (Reference Center of Metabolic diseases) during the visits: M0 (before treatment), M3 (3 months treatment), M6 then every 6 months. The efficacy outcome of the treatment was measured by clinical and biological endpoints.

[2] = Dosage of Hydroxychloroquine in blood/plasma of treated patients; type: in vivo, human
Procedure: Clinical and biological parameters were evaluated in parallel of the dosage of HCQ, performed on total blood samples with HPLC. Biological parameter consisted in measuring pro-inflammatory cytokines in plasma with […]. Physical condition included muscle pain (VAS score), quality-of-life assessment (PedsQL™ score), the distance walked during the 6-minute test, the number of steps climbed during the 3-minute test, cardiac function and sub-maximal exercise test. In vitro studies were performed on primary myoblasts from 4 patients and healthy controls. Autophagy was analyzed by measuring the ratio between LC3-II and B-actin by Western Blot. Oxidized DNA was studied by immunofluorescence staining. MtDNA levels was performed by using qPCR.
The dosage of Hydroxychloroquine was performed on total blood samples at a rate of 5 ml per assay tube, using EDTA tubes, and stored at +4° C. (dosages performed in the pharmacology/toxicology Department of the Hospital Cochin and Hospital La Pitié-Salpétrière).

[3] = tested on: patients with Lipin-1 deficiency; assay: Muscle pain (VAS) and quality-of-life (PedsQL) questionnaires; type: in vivo, human
Source text: VAS questionnaire was completed by the patient and their parents for evaluating muscle pain, ranged from score 4: not painful, to 40: very painful. Two Quality-of-life assessment ([…]) adapted to the age of the patient were completed by either the patient or their parents. The score ranged from 0: very good quality of life, to 92: very bad quality of life.

[4] = tested on: patients with Lipin-1 deficiency; assay: 6-Minute Walk Test and 3-Minute Step Test; type: in vivo, human; details: patients older than 6 y; versus prior treatment
Procedure: Muscle function was assessed by walking capacity within a 6-Minute Walk Test (6 MWT)^48,49 and by stair climbing capacity within a 3-Minute Step Test (3 MST)^50. The objectives were to walk and climb steps as far as possible for 6 and 3 minutes respectively.

[5] = tested on: patients with Lipin-1 deficiency; assay: Echocardiography (LVEF); type: in vivo, human
Procedure: Echocardiography was performed using a Vivid 9 system (General Electric Vingmed Ultrasound, Horten, Norway). Transducers ([…]) were chosen based on patient size and morphology to obtain the best image resolution. Images were acquired and stored in a digital format by two experienced examiners for offline analysis using EchoPac version 112.0.1 software (General Electric Vingmed). All records were performed while the patient was in sinus rhythm under continuous monitoring via electrocardiogram. All measurements of ventricular dimensions and function were performed according to the guidelines of the American and European Societies of Echocardiography^51.
The global longitudinal strain of the left ventricle was defined as the percentage of change during myocardial deformation and was evaluated through the speckle-tracking method using EchoPac (2D strain Q analysis) version 112.0.1 (General Electric Vingmed)^11.

[6] = tested on: patients with Lipin-1 deficiency; assay: Cardiopulmonary exercise test, cycle ergometer (dQ/dVO2); type: in vivo, human
Procedure: Patients≥6 years old underwent cardiopulmonary exercise tests (CPETs). CPETs were performed to assess the maximal exercise capacity using a cycle ergometer^11. The CPET data were compared with retrospectively collected data from a population of 21 paired children who required non-invasive cardiac output monitoring because of dyspnoea during exercise or chest pain and were considered healthy at the end of the examinations. Pairing was conducted according to sex and age. Oxygen uptake (VO2) and carbon dioxide output were measured breath-by-breath by an automated system (Sensor Medic, MSE). Measurements were taken at rest and every 20 s throughout exercise and recovery. The exercise test was considered maximal if the patient achieved a respiratory exchange ratio (RER)>1.1 and/or a maximal heart rate>85% of the theoretical maximal heart rate, and/or the oxygen uptake reached a plateau^11. Cardiac output (Q) and stroke volume (SV) were determined noninvasively during the exercise test using a thoracic bioelectrical impedance device (PhysioFlow, PF-05 Lab 1, Manatec Biomedical) as routinely performed in our centre. We calculated the slope of the relationship between cardiac output and oxygen utilization (dQ/dVO2) using measurements of Q and VO2 at rest as well as during submaximal and maximal exercise.

[7] = tested on: patients with Lipin-1 deficiency; assay: Evaluation of the tolerance of HCQ (allergy, abdominal pain, eye fundus, retinogram); type: in vivo, human
IL8 = assay: Plasma cytokine concentration, Cytometric Bead Assay; type: in vivo, human; details: all patients tested, following vs prior treatment
Procedure: (§1) Cytokine concentrations were measured in plasma using a ten-plex Cytometric Bead Assay (CBA) kit from BD Biosciences, according to the manufacturer's instructions, then analyzed by flow cytometry (ARIA II; BD Biosciences) with CBA Analysis Software (FCAP Array version 3.0; Soft Flow, St Louis Park, Minn.). The results were expressed in picograms per milliliter.

MCP-1 = assay: as above; type: in vivo, human; details: all patients tested, following vs prior treatment
Procedure: as §1

[8] = tested on: LC3-II in Lipin-1 deficient and control myoblasts; assay: Autophagy: LC3-II/B-actin ratio by Western Blot in primary myoblasts under immunometabolic stress (EBSS + CpG-A); type: cell-based, human
Procedure: (§2) Human primary myoblasts were isolated and grown as described^19. Briefly, CD56+ myoblasts isolated by flow cytometry cell sorting were maintained in HamF10 medium supplemented with 20% fetal calf serum on culture plates coated with 1% gelatin. To mimic RM, F10 medium was replaced by EBSS ([…]) (4 h) with TLR9 agonist CpGA (ODN2216) at the concentration of 10 μg/ml. Myoblasts were incubated with various HCQ concentrations (0.1 to 10 μM) 18 h before and during myoblasts starvation.
Autophagy measurements. Autophagy was analyzed using the LC3-II/B-actin ratio by Western Blot. The following antibodies used in this study were: mouse-anti-β-actin (sc-81178, Santa Cruz Biotechnology, western blotting (WB): 1:5000), mouse-anti-LC3B (clone 4E12, MBL International, IF: 1:100).

[9] = tested on: Lipin-1 deficient myoblasts; assay: Oxidized DNA (8-OHdG) immunofluorescence staining in myoblasts under immunometabolic stress; type: cell-based, human
Procedure: as §2
Imuunofluorescence staining. Oxidized DNA on fixed cells was detected with mouse-anti-8-OHdG (sc-66036, Santa Cruz Biotechnology, IF: 1:100)^54 and analyzed by confocal fluorescence microscopy. Images were recorded on a confocal LSM 700 microscope (Zeiss), with a 63× oil immersion objective and quantification was performed by analyzing cells on the Icy software (v 1.9.5.1 BioImage Analysis unit, Institut Pasteur, France).

[10] = tested on: Lipin-1 deficient myoblasts; assay: MtDNA levels by qPCR in myoblasts under immunometabolic stress; type: cell-based, human; details: myoblasts of P1, P4, P6 and P11; results need to be reproduced
Procedure: as §2
MtDNA levels was performed by using qPCR for the mitochondrial12S gene reported to the nuclear β-actin gene. Quantitative PCR was performed in triplicate using the Light Cycler VIIA7 System (Roche).

TLR9 = assay: Relative TLR9 expression in myoblasts, RT-qPCR; type: cell-based, human; details: patient and control myoblasts; EBSS + CpG-A
Source text: FIG. 7.(A-C) Relative TLR9 expression in Lipin-1 deficient and control myoblasts; comparison between basal condition and immunometabolic stress (A-B) and after HCQ treatment compared to immunometabolic stress (C); RT-qPCR. compared to basal condition in myoblasts. GM: growth medium; E: EBSS; C: CpG-A; HCQ: Hydroxychloroquine.
as §2

[11] = tested on: primary patients myoblasts; type: cell-based, human
Source text: Then, we were interested in the dosage og HCQ in vitro in order to analyse the HCQ incorporation in primary patients myoblasts.

CYP3A4/CYP2C8 = details: cited from earlier work

CCN(CCO)CCCC(C)Nc1ccnc2cc(Cl)ccc12.O=S(=O)(O)O (centres unmarked) [HCQ, 2-[[4-[(7-Chloro-4-quinolyl)amino]pentyl]ethylamino] ethanol sulfate (1:1)]
patients without new acute RM under treatment ([1]; of 10 patients, 29 RM prior to treatment): Seven | RM after resumption of treatment ([1]; patient P1): No other RM was observed | RM after HCQ disruption ([1]; patient P1, discontinued at M9, within 6 weeks after disruption): underwent extensive RM | Number of severe RM (CPK > 10k U/L) during treatment ([1]; patient P1-P10, oral HCQ, initial 6.5 mg/Kg/day, treatment duration 12-41 months): 0 (7×) and 1 and 3 and 4 | episodes of RM despite HCQ ([1]; patient P5, context of gastroenteritis): one | episodes of RM despite HCQ ([1]; patient P6, context of gastroenteritis): two | benefit effect of HCQ ([1]; patient P7): had not seem to have benefit effect | plasma HCQ levels ([2]; P5 and P6, who experimented RM, oral 6.5 mg/Kg/day): 1000 ng/mL | Plasma HCQ (μg/L) mean ([2]; patient P1-P10, oral HCQ, mean of visits): 107 µg/L and 724 µg/L and 627 µg/L and 1048 µg/L and 1040 µg/L and 290 µg/L and 610 µg/L and 407 µg/L and 752 µg/L and 318 µg/L | Plasma HCQ (μg/L) (median) ([2]; patient P1-P10, oral HCQ, median of visits): (107) μg/L and (854) μg/L and (597) μg/L and (955) μg/L and (1092) μg/L and (205) μg/L and (610) μg/L and (367) μg/L and (733) μg/L and 325) μg/L | Levels of HCQ measured at each visit ([2]; patients other than P5 and P6, oral 6.5 mg/Kg/day): ~400 ng/mL | VAS pain score, change under treatment ([3]; 2 other patients): no difference | VAS pain score, median following treatment ([3]; 4 patients, score 4 not painful - 40 very painful, median 12.25 prior treatment): 7 | PedsQL quality-of-life median score under treatment ([3]; 6 patients, 0 very good - 92 very bad, score 25 before treatment): 17.1 | increase of median score in 3 MST following treatment [4]: 31 steps | increase of median score in 6 MWT following treatment [4]: ~100 meters | LVEF ([5]; patient P3, M3 of treatment, 45% before): 62% | LVEF ([5]; patient P3, M6, M9, M12 following treatment): 63% | LVEF ([5]; patient P3, after they stopped treatment): 55% | dQ/dVO2 ratio after initiation of treatment, global mean ([6]; four patients with abnormal peripheral muscle, baseline means 7, 9.5, 9.1, 7.5): 5.8 | dQ/dVO2 ratio under treatment, mean ([6]; patient P3 with cardiac failure, baseline mean 4): 4.8 | Electroretinogramms and eye fundus ([7]; 12 months of treatment, all patients tested): normal | allergy symptoms with HCQ treatment ([7]; all patients): Any allergy symptoms have been observed | tolerance of HCQ in patients ([7]; overall): well tolerated | Side effects associated with HCQ ([7]; patients 5 and 6): abdominal pain | plasma level of IL8 (IL8): reduced | plasma level of MCP-1 (MCP-1): reduced | LC3-II accumulation (autophagy blockage) under immunometabolic stress ([8]; HCQ 10 μM, control and patients myoblasts): potentiates LC3-II accumulation | LC3-II accumulation (autophagy blockage) under immunometabolic stress ([8]; HCQ 0.1 and 1 μM): less deleterious | oxDNA levels in myoblasts ([9]; HCQ 0.1 to 10 μM): normalized oxDNA levels | accumulation of oxDNA under immunometabolic stress ([9]; myoblasts of P1, P4, P6 and P11, EBSS + CpG-A): prevents this accumulation | accumulation of mtDNA under immunometabolic stress [10]: prevents this accumulation | TLR9 expression under stress condition (TLR9): variable effect; also recorded: could not decrease TLR9 expression | HCQ incorporation in primary myoblasts [11]: HCQ incorporation is effective | share of the HCQ metabolism by CYP3A4/CYP2C8 (CYP3A4/CYP2C8): 80%
